Measured values as given in ChEMBL document CHEMBL6115029, “Discovery of Daraxonrasib (RMC-6236), a Potent and Orally Bioavailable RAS(ON) Multi-selective, Noncovalent Tri-complex Inhibitor for the Treatment of Patients with Multiple RAS-Addicted Cancers” (J Med Chem, 2025).
Activity calls are given as the source filed them. No cut-off for these calls is given here.

Experiments:
NCI-H441 = test: Inhibition of ERK1/2 phosphorylation in human NCI-H441 cells harboring KRAS G12V mutant incubated for 4 hrs by AlphaLISA assay; type: cell-based
ASPC1 = test: Cytotoxicity against human ASPC1 cells harboring KRAS G12D mutant cultured as 2D cells assessed as reduction in cell viability incubated for 120 hrs by CellTiter-Glo luminescence assay; type: functional, cell-based; details: ASPC1, 120 h
[1] = Toxicity in female BALB/c nude mouse xenografted with human NCI-H441 cells harboring wildtype KRAS/KRAS G12V mutant assessed as effect on body weight at 25 mg/kg, po administered once daily for 28 days; type: organism-based; details: in vivo, 672 h, time 28 day
[2] = Clearance in female BALB/c mouse blood at 1 mg/kg, iv measured after 24 hrs by LC-MS/MS analysis; type: ADME, organism-based
[3] = Half-life in male cynomolgus monkey at 1 mg/kg, iv measured after 24 hrs by LC-MS/MS analysis; type: ADME, organism-based, Macaca fascicularis; details: in vivo

CCn1c(-c2cc(N3CCN(C)CC3)cnc2[C@H](C)OC)c2c3cc(ccc31)-c1csc(n1)C[C@H](NC(=O)[C@H]1C[C@@H]1C)C(=O)N1CCC[C@H](N1)C(=O)OCC(C)(C)C2
inhibition (NCI-H441): Active
EC50 (ASPC1): 3.1 nM
Activity [1]: Non-toxic
clearance [2]: 8.33 mL/min/kg
half-life [3]: 372 min
